# Read-outs that look alike come from different tables or passages of the source.
# Key:
# Format in all cases: cell-based
# Pseudomonas aeruginosa = assay: MIC against a single isolate (Example 26); conditions: read-out: P. aeruginosa MIC
# Description: (§1) Bacterial strains evaluated in this study include Escherichia coli, Klebsiella spp, Serratia marcescens, Proteus mirabilis/vulgaris, Citrobacter spp, Providencia spp, Morganella morganii, Pseudomonas aeruginosa, Staphylococcus aureus (MRSA only), and Enterococcus faecalis. Nu-8 test solutions are adjusted to pH 3.5 with citric acid, and MIC is evaluated per the CLSI methods in Mueller-Hinton broth supplemented accordingly to facilitate growth of specific strains.
# (§2) MIC was determined as per Example 9 using LAI-101, LAI-102, Nu-10, LAI-105, LAI-106, Nu-3, and Nu-8 against a single isolate of Escherichia coli. Pseudomonas aeruginosa, Staphylococcus aureus (MRSA only), and Candida Albicans. For all microbe species, the LAI-101, LAI-102, Nu-10, LAI-105, and LAI-106 all perform at least as well as, and in many experiments better than, Nu-8 and Nu-3, which are both already quite active compounds.
# Candida Albicans = assay: MIC against a single isolate (Example 26); conditions: read-out: C. albicans MIC
# Description: as §1, §2
# [1] = tested on: Staphylococcus aureus (MRSA only); assay: MIC against a single isolate (Example 26); conditions: read-out: S. aureus MIC
# Description: as §1, §2
# Escherichia coli = assay: MIC against a single isolate (Example 26); conditions: read-out: E. coli MIC
# Description: as §1, §2
# E. coli (ATCC 25922) = assay: Time kill assay in saline at pH 3.5 (Example 27); conditions: for Log10 CFU/mL: pH 3.5
# Description: Log10 5 CFU of E. coli (ATCC 25922) were suspended in saline. Additionally, a sample of the saline only was prepared as a vehicle control (V.C.). Solutions of Nu-3, Nu-8, and Nu-10 at varying concentrations were adjusted to pH 3.5 with citric acid and added to the E. coli suspensions. At each time point (0, 1, 2.5, 5, 10, and 20 minutes), the treated bacterial suspensions were plated and incubated for 24 hrs, and each plate was read to determine the CFU count.
# Tables 12-14 provide the time kill assay data for Nu-3 (Table 12), Nu-8 (Table 13) and Nu-10 (Table 14) against E. coli.
# [2] = tested on: wild type P. aeruginosa (PAO1; K2732); assay: Bacterial cytological profiling at pH 4, 5.5, 7 (Example 8), P. aeruginosa; conditions: pH 5.5 and 7; 112.5 mg/mL
# Description: (§3) This bacterial cytological profiling (BCP) investigation uses methods and materials described previously by Nonejuie, P., Burkart, M., Poglianoa, K., Pogiano, J. (2013). Bacterial cytological profiling rapidly identifies the cellular pathways targeted by antibacterial molecules. Proc. Natl. Acad. Sci. U.S.A. 110(40):16169-16174. doi: 10.1073/pnas.1311066110.
# (§4) For viable cell counts, cells are grown to OD600≈0.4 and diluted 1:1 into buffered or unbuffered media containing various compound concentrations. Samples are then collected and serially diluted (1:10) on a 96 well plate. Five microliters from each well are spotted on LB plates, incubated at 30° C., and viable cells are counted the next day.
# (§5) Samples are collected at 10, 30, 120, and 240 min of exposure for viable cell count and imaging. For imaging, E. coli and S. aureus 200 μL of treated cells per time point are stained with 0.8 μg/mL FM4-64, 1.5 μg/mL DAPI, and 0.4 μM SYTOXGreen (Molecular Probes/Invitrogen). P. aeruginosa samples are stained 0.4 μM SYTOX Green, 28 μg/mL DAN, and 1 μg/mL FM 4-64. Cells are transferred to an agarose pad (20% LB, 1% agarose) for imaging.
# (§6) For Nu-3 and Nu-8 stocks (at pH 4, 5.5 and 7), stock concentration is 500 mg/mL. For pH 4, the stocks are prepared by dissolving Nu-3 in 25 mM citrate buffer and Nu-8 in 350 mM citric acid. For pH 5.5, the stocks are prepared by dissolving Nu-3 in 25 mM citric-phosphate and Nu-8 in 25 mM critic. For pH 7, the stocks are prepared by dissolving Nu-3 and Nu-8 in 25 mM Sorensen phosphate buffer. 2×LB (lysogeny broth) solutions are prepared with 50 mM citrate buffer for pH 4, 50 mM citrate-phosphate buffer for pH 5.5, and 50 mM Sorensen phosphate buffer for pH 7.
# P. aeruginosa K2732 = assay: Bacterial cytological profiling (Example 6), P. aeruginosa; conditions: BCP;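 also: tested at 1 0.5 and 0.25 times MIC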
# Description: as §3, with “study” for “investigation”
# (§7) Wild type strains of E. coli ATCC 25922 or P. aeruginosa K2732 are grown in rich media (unbuffered 2× Lysogeny broth [LB]) at 30 C to an OD600˜0.4. These cultures are then split and each sample treated with the appropriate concentration of Nu-8 in unbuffered or buffered LB (final mixture OD600˜0.1). Cells exposed without Nu-8 are buffered to pH 4 with phosphoric acid.
# (§8) The BCP is performed in LB media buffered to pH 4. The minimum inhibitory concentration (MIC) is measured for Nu-3, Nu-4, Nu-5, and Nu-8 against each bacterial strain. As one of ordinary skill in the art understands, minimum inhibitory concentrations are the lowest concentration of an antimicrobial that will inhibit the visible growth of a microorganism after overnight incubation. […] Cellular viability is assayed at three time points (5 minutes and 4 and 24 h following the onset of treatment).
# (§9) For imaging E. coli, treated cells are stained with 1 μg/Ml FM4-64, 2 μg/mL DAPI, and 0.5 μM SYTOXGreen (Molecular Probes/Invitrogen). P. aeruginosa samples are stained 0.5 μM SYTOX Green, 28 μg/mL DAPI, and 4.5 μg/mL FM 4-64. Cells are transferred to an agarose pad (20% LB, 1% agarose) for imaging as described in Pogliano, J., Osborne, N., Sharp, M. D., Abanes-De Mello, A., Perez, A., Sun, Y.-L. and Pogliano, K. (1999), A vital stain for studying membrane dynamics in bacteria: a novel mechanism controlling septation during Bacillus subtilis sporulation. Molecular Microbiology, 31: 1149-1159. doi:10.1046/j.1365-2958.1999.01255.x.
# [3] = tested on: wild type E. coli (ATCC 25922); assay: Bacterial cytological profiling at pH 4, 5.5, 7 (Example 8), E. coli
# Description: as §3, §4, §5, §6
# E. coli ATCC 25922 = assay: Bacterial cytological profiling (Example 6), E. coli;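 as to cell wall deformations: tested at 1 0.5 and 0.25 times MIC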;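 as to effect on cell envelope: tested at 1 0.5 and 0.25 times MIC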
# Description: as §3, with “study” for “investigation”
# as §7, §8, §9
# [4] = tested on: methicillin susceptible S. aureus (ATCC 29213); assay: Bacterial cytological profiling at pH 4, 5.5, 7 (Example 8), S. aureus
# Description: as §3, §4, §5, §6
smiles,measurement,setting,value
"CCCCOP(=O)(O)OC[C@H]1O[C@@H](n2ccc(N)nc2=O)[C@H](OC)[C@@H]1OP(=O)(O)OCCCC [Nu-10, ((2R,3R,4R,5R)-5-(4-amino-2-oxopyrimidin-1(2H)-yl)-3-((butoxy(hydroxy)phosphoryl)oxy)-4-methoxytetrahydrofuran-2-yl)methyl butyl hydrogen phosphate]",MIC,Pseudomonas aeruginosa; single isolate,5000 µg/mL
same,MIC,Candida Albicans; single isolate,5000 µg/mL
same,MIC,[1]; single isolate,5000 µg/mL
same,MIC,Escherichia coli; single isolate,1000 µg/mL
same,Log10 CFU/mL,"E. coli (ATCC 25922); 0.1% solution, 0 min",5.20 Log10 CFU/mL
same,Log10 CFU/mL,"E. coli (ATCC 25922); 0.1% solution, 1 min",3.78 Log10 CFU/mL
same,Log10 CFU/mL,"E. coli (ATCC 25922); 0.1% solution, 2.5 min",3.38 Log10 CFU/mL
same,Log10 CFU/mL,"E. coli (ATCC 25922); 0.1% solution, 5 min",2.57 Log10 CFU/mL
same,Log10 CFU/mL,"E. coli (ATCC 25922); 0.1% solution, 10 min",0.00 Log10 CFU/mL
same,Log10 CFU/mL,"E. coli (ATCC 25922); 0.1% solution, 20 min",0.00 Log10 CFU/mL
same,Log10 CFU/mL,"E. coli (ATCC 25922); 0.5% solution, 0 min",5.20 Log10 CFU/mL
same,Log10 CFU/mL,"E. coli (ATCC 25922); 0.5% solution, 1 min",2.51 Log10 CFU/mL
same,Log10 CFU/mL,"E. coli (ATCC 25922); 0.5% solution, 2.5 min",0.00 Log10 CFU/mL
same,Log10 CFU/mL,"E. coli (ATCC 25922); 0.5% solution, 5 min",0.00 Log10 CFU/mL
same,Log10 CFU/mL,"E. coli (ATCC 25922); 0.5% solution, 10 min",0.00 Log10 CFU/mL
same,Log10 CFU/mL,"E. coli (ATCC 25922); 0.5% solution, 20 min",0.00 Log10 CFU/mL
same,Log10 CFU/mL,"E. coli (ATCC 25922); 2.5% solution, 0 min",5.20 Log10 CFU/mL
same,Log10 CFU/mL,"E. coli (ATCC 25922); 2.5% solution, 1 min",0.00 Log10 CFU/mL
same,Log10 CFU/mL,"E. coli (ATCC 25922); 2.5% solution, 2.5 min",0.00 Log10 CFU/mL
same,Log10 CFU/mL,"E. coli (ATCC 25922); 2.5% solution, 5 min",0.00 Log10 CFU/mL
same,Log10 CFU/mL,"E. coli (ATCC 25922); 2.5% solution, 10 min",0.00 Log10 CFU/mL
same,Log10 CFU/mL,"E. coli (ATCC 25922); 2.5% solution, 20 min",0.00 Log10 CFU/mL
same,time to complete kill of the bacteria,E. coli (ATCC 25922); concentration of 2.5%,≤ 1 min
"CCCCOP(=O)(O)OC[C@H]1O[C@@H](n2cc(C)c(=O)[nH]c2=O)C[C@@H]1OP(=O)(O)OCCCC [Nu-3, reference compound]",MIC,Pseudomonas aeruginosa; single isolate,25000 µg/mL
same,MIC,Candida Albicans; single isolate,25000 µg/mL
same,MIC,[1]; single isolate,> 50000 µg/mL
same,MIC,Escherichia coli; single isolate,25000 µg/mL
same,cell growth,[2],no effect on cell growth
same,increase/change in cell permeability,[2],< 6%
same,effect on cell envelope,P. aeruginosa K2732,affect the cell envelope
same,cell viability (cell growth delay),"[3]; pH 4, 112.5 mg/mL, up to 240 min",10^7 CFR/mL
same,"effect on cell permeability, viability and growth",[3]; pH 5.5 and 7,ineffective
same,effect on cell envelope,E. coli ATCC 25922; BCP,affect the cell envelope
same,DNA condensation,"E. coli ATCC 25922; higher treatment concentrations, buffered pH 4",causes DNA condensation
same,cell wall deformations,E. coli ATCC 25922; unbuffered LB,cause cell wall deformations
same,Log10 CFU/mL,"E. coli (ATCC 25922); 2.5% solution, 0 min",5.20 Log10 CFU/mL
same,Log10 CFU/mL,"E. coli (ATCC 25922); 2.5% solution, 1 min",3.38 Log10 CFU/mL
same,Log10 CFU/mL,"E. coli (ATCC 25922); 2.5% solution, 2.5 min",2.55 Log10 CFU/mL
same,Log10 CFU/mL,"E. coli (ATCC 25922); 2.5% solution, 5 min",1.99 Log10 CFU/mL
same,Log10 CFU/mL,"E. coli (ATCC 25922); 2.5% solution, 10 min",0.00 Log10 CFU/mL
same,Log10 CFU/mL,"E. coli (ATCC 25922); 2.5% solution, 20 min",0.00 Log10 CFU/mL
same,Log10 CFU/mL,"E. coli (ATCC 25922); 5% solution, 0 min",5.20 Log10 CFU/mL
same,Log10 CFU/mL,"E. coli (ATCC 25922); 5% solution, 1 min",3.00 Log10 CFU/mL
same,Log10 CFU/mL,"E. coli (ATCC 25922); 5% solution, 2.5 min",2.10 Log10 CFU/mL
same,Log10 CFU/mL,"E. coli (ATCC 25922); 5% solution, 5 min",0.00 Log10 CFU/mL
same,Log10 CFU/mL,"E. coli (ATCC 25922); 5% solution, 10 min",0.00 Log10 CFU/mL
same,Log10 CFU/mL,"E. coli (ATCC 25922); 5% solution, 20 min",0.00 Log10 CFU/mL
same,Log10 CFU/mL,"E. coli (ATCC 25922); 10% solution, 0 min",5.20 Log10 CFU/mL
same,Log10 CFU/mL,"E. coli (ATCC 25922); 10% solution, 1 min",2.85 Log10 CFU/mL
same,Log10 CFU/mL,"E. coli (ATCC 25922); 10% solution, 2.5 min",0.00 Log10 CFU/mL
same,Log10 CFU/mL,"E. coli (ATCC 25922); 10% solution, 5 min",0.00 Log10 CFU/mL
same,Log10 CFU/mL,"E. coli (ATCC 25922); 10% solution, 10 min",0.00 Log10 CFU/mL
same,Log10 CFU/mL,"E. coli (ATCC 25922); 10% solution, 20 min",0.00 Log10 CFU/mL
same,time to complete kill of the bacteria,E. coli (ATCC 25922); concentration of 10%,≤ 2.5 min
same,cell growth,"[4]; pH 4, 125 mg/mL",slight reduction in cell growth
same,cell permeability,"[4]; pH 4, 125 mg/mL",< 10%
same,cell permeability,"[4]; pH 4, 250 mg/mL",< 10%
same,cell growth,"[4]; pH 5.5 and 7, 125 mg/mL and 250 mg/mL, up to 24 h",slightly reduce cell growth
"CC(C)COP(=O)(O)OC[C@H]1O[C@@H](n2ccc(N)nc2=O)C[C@@H]1OP(=O)(O)OCC(C)C [LAI-101, ((2R,3S,5R)-5-(4-amino-2-oxopyrimidin-1(2H)-yl)-3-((hydroxy(isobutoxy)phosphoryl)-oxy)tetrahydrofuran-2-yl)methyl isobutyl hydrogen phosphate]",MIC,Pseudomonas aeruginosa,5000 µg/mL
same,MIC,Candida Albicans,50000 µg/mL
same,MIC,[1],5000 µg/mL
same,MIC,Escherichia coli,5000 µg/mL

# Source: US12054509B2, “Antimicrobial compounds, compositions, and uses thereof” (Lakewood Amedex, Inc., priority 2017, dated 2024)
